This passage reports EC50 results from US9469645B2, “Compounds and compositions for the treatment of parasitic diseases” (Novartis AG, priority 2009, dated 2016).

The test system of assay [1] is 3D7 P. falciparum strain. Nature of the assay: parasite proliferation assay in infected red blood cells (SYBR Green I). Type of assay: cell-based, Plasmodium falciparum. To be noted: Plasmodium falciparum, 3D7, Erythrocyte, 3D7 strain; read-out: EC50 3D7 strain. The method in brief:
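P. falciparum 3D7 grown in O+ human erythrocytes to 3–8% parasitemia and exposed to compounds. Proliferation read as the increase in parasite DNA. Detection used SYBR Green I in saponin/triton-X/EDTA lysis buffer, with overnight lysis at room temperature.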

In assay [2] the test system is W2 strain. Nature of the assay: parasite proliferation assay in infected red blood cells (SYBR Green I), W2 strain. It is filed as cell-based, Plasmodium falciparum. As to conditions: Plasmodium falciparum, Erythrocyte. An excerpt:
(§1) Compounds of the invention can be assayed to measure their capacity to inhibit proliferation of parasitemia in infected red blood cells. The proliferation is quantified by the addition of SYBR Green I (INVITROGEN)® dye which has a high affinity for double stranded DNA.

Assay [3] deals with W2 strain. The assay is described as above. It is filed as cell-based. To be noted: Erythrocyte.
Description: as §1

What is called EC50 is the concentration giving half of the maximal effect. In the case of `Cc1ccc(C[C@H](N)C(=O)N2CCn3c(nc(-c4ccc(F)cc4)c3Nc3ccc(C)cc3)C2)cc1` [Compound 484], the EC50 in assay [1] was determined as 0.04 µM; in assay [2] it was 0.023 µM.

Take `CC1(C)NC(=O)Cn2c1nc(-c1ccc(F)cc1)c2Nc1ccc(F)cc1` [Compound 512]: the EC50 in assay [1] stood at 0.19 µM; in assay [2] it was 0.165 µM.

As to `CC1(C)NC(=O)Cn2c1nc(-c1ccc(F)cc1)c2Nc1cnc2ccccc2c1` [Compound 566], the EC50 in assay [1] is 5.48 µM; in assay [2], 4.46 µM.

For the compound `O=C([C@@H]1CCN1)N1CCn2c(nc(-c3ccc(F)cc3)c2Nc2ccc(F)cc2)C1` [Compound 477], the concentration giving a half-maximal response (EC50) was found to be 0.07 µM in assay [1] and 0.055 µM in assay [2].

For `CN[C@@H](C(=O)N1CCn2c(nc(-c3ccc(F)cc3)c2Nc2ccc(C)cc2)C1)C(C)C` [Compound 414], the EC50 in assay [1] worked out at 0.16 µM; in assay [2], 0.156 µM.

`Cc1ccc(C[C@H](N)C(=O)N2CCn3c(nc(-c4ccc(F)cc4)c3Nc3ccc(F)cc3)C2)cc1` [Compound 474]: the figures for the half-maximal effective concentration (EC50) in assay [1] and in assay [2] were 0.13 µM and 0.088 µM, respectively.

`Cc1ccc(Nc2c(-c3ccc(F)cc3)nc3n2CCN(C(=O)C(C)(N)CO)C3)cc1` (stereo not shown) [Compound 505]: the EC50 was 0.14 µM in assay [1] and 0.116 µM in assay [2].

With `CCN(c1cccc(F)c1)c1c(-c2ccc(F)cc2)nc2n1CCNC2` [Compound 446], the EC50 in assay [1] was 0.31 µM; in assay [2], 0.243 µM.

For the compound `CC(C)[C@H]1NC(=O)Cn2c1nc(-c1ccc(F)cc1)c2Nc1ccc(Cl)cc1` [Compound 549], the EC50 in assay [1] came to 1.7 µM; in assay [2] it was 3.26 µM.

As to `CC[C@H](C)[C@H](N)C(=O)N1CCn2c(nc(-c3ccc(F)cc3)c2Nc2ccc(F)c(F)c2)C1` [Compound 442], the concentration for a half-maximal effect (EC50) in assay [1] worked out at 0.02 µM; in assay [2], 0.033 µM.

Take `CC1(C)c2nc(-c3ccc(F)cc3)c(Nc3ccc(C#N)c(Cl)c3)n2CCN1C(=O)CN` [Compound 534]: the EC50 in assay [1] was 0.04 µM; in assay [2] it was 0.019 µM.

Consider `Cc1ccc(Nc2c(-c3ccc(F)cc3)nc3n2CCN(C(=O)C(C)(C)N)C3(C)C)cc1C#N` [Compound 590], for which the EC50 in assay [1] was found to be 0.03 µM; in assay [2], 0.018 µM.

Take `CC1(C)NC(=O)Cn2c1nc(-c1ccc(F)cc1)c2Nc1ccc(F)c(F)c1` [Compound 509]: the figures for the EC50 in assay [1] and in assay [2] were 0.13 µM and 0.134 µM, respectively.

As for `Cc1ccc(Nc2c(-c3ccc(F)cc3)nc3n2CCNC3(C)C)cc1C#N` [Compound 527], the concentration giving a half-maximal response (EC50) in assay [1] was 0.004 µM; in assay [2], 0.006 µM.

Consider `Cc1ccnc(Nc2c(-c3ccc(F)cc3)nc3n2CC(=O)NC3(C)C)c1` [Compound 547], for which the results for the EC50 in assay [1] and in assay [2] were 1.82 µM and 4.66 µM, respectively.

Consider `N[C@@H](Cc1ccc(F)cc1)C(=O)N1CCn2c(nc(-c3ccc(F)cc3)c2Nc2ccc(Cl)cc2)C1` [Compound 458], for which the EC50 in assay [1] was found to be 0.02 µM; in assay [2], 0.017 µM.

On to `CC1(C)NCCn2c1nc(-c1ccc(F)cc1)c2Nc1ccc(F)c(C(=O)O)c1` [Compound 523], for which the 50% effective concentration (EC50) in assay [1] amounted to 13.1 µM; in assay [2] it was 11.6 µM.

For the compound `CNC(=O)c1cccc(Nc2c(-c3ccc(F)cc3)nc3n2CCN(C(=O)CN)C3(C)C)c1` [Compound 553], the half-maximal effective concentration (EC50) in assay [1] came out at 2.37 µM; in assay [2] it was 4.66 µM.

As to `CC[C@H](C)[C@H](N)C(=O)N1CCn2c(nc(-c3ccc(F)cc3)c2Nc2ccc(F)cc2)C1` [Compound 469], the EC50 in assay [1] came out at 0.02 µM; in assay [2], 0.016 µM.

`CC(C)[C@H](N)C(=O)N1CCn2c(nc(-c3ccc(F)cc3)c2Nc2ccc(F)cc2)C1` [Compound 464]: the EC50 in assay [1] came out at 0.03 µM; in assay [2] it was 0.024 µM.

As for `N[C@@H](CC1CCC1)C(=O)N1CCn2c(nc(-c3ccc(F)cc3)c2Nc2ccc(Cl)cc2)C1` [Compound 452], the EC50 in assay [1] was found to be 0.02 µM; in assay [2], 0.019 µM.

Consider `CC(C)[C@H](O)C(=O)N1CCn2c(nc(-c3ccc(F)cc3)c2Nc2ccc(F)c(F)c2)C1` [Compound 440], for which the EC50 turned out to be 0.02 µM in assay [1] and 0.028 µM in assay [2].

As to `C[C@@H]1c2nc(-c3ccc(F)cc3)c(Nc3ccc(Cl)c(F)c3)n2CCN1C(=O)CN` [Compound 596], the EC50 in assay [1] was 0.03 µM; in assay [2], 0.029 µM.

With `CC1(C)c2nc(-c3ccc(F)cc3)c(Nc3cc(F)c(F)c(F)c3)n2CCN1C(=O)CN` [Compound 554], the midpoint of the response in assay [2], the EC50, lay at 0.007 µM.

As to `O=C(CNc1ccccc1)N1CCn2c(nc(-c3ccc(F)cc3)c2Nc2ccc(Cl)c(F)c2)C1` [Compound 305], the EC50 in assay [1] is 0.09 µM; in assay [3], 0.094 µM.

As to `CC(C)(C)CC(C)(C)Nc1c(-c2ccccc2C(F)(F)F)nc2ccccn12` [Compound 745], the EC50 in assay [1] came out at 3.57 µM; in assay [3] (Plasmodium falciparum) it was 4.23 µM.

As for `CC(C)(N)C(=O)N1CCn2c(nc(-c3ccc(F)cc3)c2Nc2ccc(C(F)(F)F)cc2)C1` [Compound 72], the EC50 in assay [1] is 0.95 µM; in assay [3] it was 0.589 µM.

As for `N[C@@H](C(=O)N1CCn2c(nc(-c3ccc(F)cc3)c2Nc2ccc(F)cc2)C1)C(F)(F)F` [Compound 196], the figures for the EC50 in assay [1] and in assay [3] were 0.32 µM and 0.344 µM, respectively.

As to `Cc1cc(C)cc(Sc2c(-c3ccc(F)cc3)nc3n2CCN(C(=O)CN)C3(C)C)c1` [Compound 717], the figures for the half-maximal effective concentration (EC50) in assay [1] and in assay [3] (Plasmodium falciparum) were 0.026 µM and 0.016 µM, respectively.

In the case of `O=C(CNC1CC1)N1CCn2c(nc(-c3ccc(F)cc3)c2Nc2ccc(F)cc2)C1` [Compound 68], the EC50 in assay [1] turned out to be 0.15 µM; in assay [3], 0.264 µM.

Regarding `CC(C)(C)CC(C)(C)Nc1c(C(c2ccccc2)c2ccccc2)nc2ccccn12` [Compound 739], the 50% effective concentration (EC50) in assay [1] stood at 0.768 µM; in assay [3] (Plasmodium falciparum) it was 0.881 µM.

Consider `Cc1ccc(Nc2c(-c3ccc(F)cc3)nc3n2CCN(Cc2ccc(N4CCOCC4)cc2)C3)cc1` [Compound 180], for which the EC50 in assay [1] is 0.73 µM; in assay [3], 0.609 µM.

Regarding `Cc1ccc(Nc2c(-c3ccc(F)c(F)c3)nc3n2CCN(C(=O)CN)C3)cc1` [Compound 385], the EC50 in assay [1] and in assay [3] was 0.02 µM each time.

As to `Cc1ccc(Nc2c(-c3ccc(F)cc3)nc3n2CCN(C(=O)[C@@H](N)Cc2ccc(N)cc2)C3)cc1` [Compound 157], the concentration giving a half-maximal response (EC50) was found to be 0.1 µM in assay [1] and 0.097 µM in assay [3].

Regarding `O=C(CN1CCC(F)CC1)N1CCn2c(nc(-c3ccc(F)cc3)c2Nc2ccc(F)cc2)C1` [Compound 60], the EC50 was 2.46 µM in assay [1] and 2.13 µM in assay [3].

As to `CN[C@H](C(=O)N1CCn2c(nc(-c3ccc(F)cc3)c2Nc2ccc(C)cc2)C1)C(C)C` [Compound 376], the figures for the EC50 in assay [1] and in assay [3] were 0.06 µM and 0.079 µM, respectively.

As to `CN1Cc2nc(-c3ccc(F)cc3)c(Nc3ccc(Cl)c(F)c3)n2C(C)(C)C1=O` [Compound 615], the EC50 in assay [1] is 6.41 µM; in assay [3] (Plasmodium falciparum) it was 5.61 µM.

On to `NC(C(=O)N1CCn2c(nc(-c3ccc(F)cc3)c2Nc2ccc(F)cc2)C1)C(F)(F)F` (stereo not shown) [Compound 50], for which the EC50 in assay [1] came to 0.18 µM; in assay [3] it was 0.187 µM.

As for `Cc1ccc(Nc2c(-c3ccc(F)cc3)nc3n2CCN(C(=O)C(O)c2cccc(O)c2)C3)cc1` (stereo not shown) [Compound 129], the EC50 in assay [1] came out at 0.01 µM; in assay [3] it was 0.006 µM.

On to `COCCNCC(=O)N1CCn2c(nc(-c3ccc(F)cc3)c2Nc2ccc(C)cc2)C1` [Compound 309], for which the figures for the EC50 in assay [1] and in assay [3] were 0.08 µM and 0.068 µM, respectively.
